The values below come from patent US5276205A, “Insecticides” (ICI Americas Inc., priority 1989, dated 1994).

Common to all, as to format: in vivo
Assay [1] deals with Housefly [Musca domestica]. Briefly: Housefly insecticidal test (HF). The note with it: μg of test compound per 25 female flies; mortality after 48 hours; max. test level 100 μg. The protocol:
(§1) The compounds in Table 1 above were tested for insecticidal activity using the following testing procedures. LC50 values, based on the results of these tests and calculated according to dosage-mortality curves, are expressed in Table 2.
Housefly [Musca domestica]
The test compound was diluted in acetone and aliquots pipetted onto the bottom of aluminum dishes. To ensure even spreading of the chemical on the bottom of the dishes, 1 ml of acetone containing 0.01% peanut oil was also added to each dish. After all solvents had evaporated, the dishes were placed in circular cardboard cages containing 25 female houseflies, 1-2 days old. The cages were covered on the bottom with cellophane and on the top with tulle netting, and each contained a sugar-water saturated cotton plug for maintenance of the flies. Mortality was recorded after 48 hours. Test levels ranged from 100 μg/25 female houseflies downward. The LC-50 value is expressed below in Table 2 under the heading "HF", in terms of μg of the test compound per 25 female flies.

Assay [2] concerns Black Bean Aphid [Aphis fabae (Scop.)]. Description: Black bean aphid insecticidal test (BBA). The note with it: percent in sprayed solution; mortality after 48 hours; max. 0.05%. As to the method:
as §1
Black Bean Aphid [Aphis fabae (Scop.)]
Nasturtium plants (Tropaeolum sp.) approximately 5 cm tall, were transplanted into sandy loam soil in small cups and infested with 25-50 black bean aphids of mixed ages. Twenty-four hours later they were sprayed to the point of runoff with 50-50 acetone-water solutions of the test compound. Treated plants were held in the greenhouse and mortality was recorded after 48 hours. Test concentrations ranged from 0.05% downward. The LC-50 value is expressed below in Table 2 under the heading "BBA" in terms of percent of the test compound in the sprayed solution.

In assay [3] the test system is two-spotted mite [Tetranychus urticae (Koch)], adults. Briefly: Two-spotted mite acaricidal test, adults (2SM-A). The note with it: percent in dip solution, mortality after 5-7 days, max. 0.05%. The source says:
(§2) Acaricidal Evaluation Test
(§3) The two-spotted mite (2SM) [Tetranychus urticae (Koch)] was employed in tests for miticides. The test procedure was as follows:
(§4) Pinto bean plants (Phaseolus sp.), approximately 10 cm tall, were transplanted into sandy loam soil in small cups and thoroughly infested with two-spotted mites of mixed ages and sexes. Twenty-four hours later the infested plants were inverted and dipped for 2-3 seconds in 50-50 acetone-water solutions of the test compound. Treated plants were held in the greenhouse, and 5-7 days later mortality was determined for both adult mites and the nymphs hatching from eggs which were on the plants at the time of treatment. Test concentrations ranged from 0.05% downward. The LC-50 value is expressed below in Table 2 under the headings "2SM-A" (i.e., adults) and "2SM-E" (i.e. eggs) in terms of percent concentration of the test compound in the solution.

The subject of assay [4] is two-spotted mite [Tetranychus urticae (Koch)], eggs. Briefly: Two-spotted mite acaricidal test, eggs (2SM-E). The note with it: percent in dip solution, mortality after 5-7 days, max. 0.05%.
Description: as §2, §3, §4

Assay [5] relates to Tobacco Budworm [Heliothis virescens (Fabricius)], eggs. Description: Tobacco budworm egg test (TBW-E). The note with it: 2-day old eggs dipped; percent in acetone solution; max. 0.1%. As to the method:
The compounds in Table 1 above were tested for insecticidal activity using the following testing procedures.
Tobacco Budworm [Heliothis virescens (Fabricius)]
Eggs: Paper towel patches of 2-day old eggs of the tobacco budworm were dipped in acetone solutions of the test compound and placed in petri dishes containing a portion of larval rearing medium. […] Test concentrations ranged from 0.1% downward. The LC-50 value is expressed below in Table 2 under the heading "TBW-E" in terms of percent of the test compound in the solution.

Assay [6] relates to Western Spotted Cucumber Beetle Larvae [Diabrotica undecimpunctata (Mannherheim)]. Description: Western spotted cucumber beetle larvae soil test (Diab). The note with it: ppm in soil; max. 25 ppm. The protocol: as §1
Western Spotted Cucumber Beetle Larvae [Diabrotica undecimpunctata (Mannherheim)]
Ten grams of moist potting soil was placed in a plastic cup. The test compound was dissolved in acetone. A 0.05 ml aliquot of the test sample, diluted to the desired concentration, was added to the soil. The cup was capped and the soil was mixed on a vortex mixer for approximately 15 seconds. An indentation was made on the surface of the soil and approximately 50 Diabrotica eggs were added. The eggs were covered with soil and maintained at room temperature (approximately 70° F. or 21° C.). Four days later a section of Romaine lettuce (Latuca sativa) leaf was placed in the treated cups. One week later the cups were examined for live larvae. Test concentrations ranged from 25 ppm downward. The LC-50 value is expressed below in Table 2 under the heading "Diab" in terms of ppm of the test compound in the soil.

Assay [7] has as its system Cabbage Looper [Trichoplusia ni (Hubner)]. Description: Cabbage looper insecticidal test (CL). The note with it: second-instar larvae; percent in solution; mortality 3-5 days later; max. 0.1%. The protocol:
as §1
Cabbage Looper [Trichoplusia ni (Hubner)]
The test compound was diluted in a 50-50 acetone-water solution. Cotyledons of hyzini squash (Calabacita abobrinha), approximately 1×1.5 inches, were immersed in the test solutions for 2-3 seconds and placed on a wire screen to dry. The dried leaves were placed in petri dishes containing a moistened piece of filter paper and infested with 5 second-instar cabbage looper larvae. The dishes were placed in a high humidity chamber. Mortality of the larvae was recorded 3-5 days later. Test concentrations ranged from 0.1% downward. The LC-50 value is expressed below in Table 2 under the heading "CL" in terms of percent of the test compound in solution.

`CC(C)C(O)(CCc1cccc(Oc2ccccc2)c1)Cc1cccc(Cl)c1` (centres unmarked) [Compound 5]: the “LC50 HF” value in assay [1] came out at 84 µg. Moreover, the “LC50 BBA” value in assay [2] is recorded as 0.05%. Besides, the “LC50 2-SM A” value in assay [3] is recorded as > 0.05%. In assay [4], the “LC50 2-SM E” value is reported as > 0.05%. Besides, the “LC50 TBW E” value in assay [5] was > 0.1%. In addition, the “LC50 Diab.” value in assay [6] was > 25 ppm (soil). The “LC50 CL” value in assay [7] amounted to 0.008%.

On to `OC(CCc1cccc(Oc2ccccc2)c1)(Cc1cccc(Cl)c1)C1CC1` (centres unmarked) [Compound 4], for which the “LC50 HF” value in assay [1] is > 100 µg. Also, in assay [2], the “LC50 BBA” value is given as > 0.05%. Besides, the “LC50 2-SM A” value in assay [3] is recorded as > 0.05%. Moreover, the “LC50 2-SM E” value in assay [4] is recorded as > 0.05%. Further, the “LC50 TBW E” value in assay [5] is > 0.1%. The “LC50 Diab.” value in assay [6] is given as > 25 ppm (soil). Also, the “LC50 CL” value in assay [7] stood at 0.035%.

As for `OC(CCc1cccc(Oc2ccccc2)c1)(Cc1ccc(Cl)cc1)C1CC1` (centres unmarked) [Compound 3], the “LC50 HF” value in assay [1] is > 100 µg. The “LC50 BBA” value in assay [2] is recorded as > 0.05%. The “LC50 2-SM A” value in assay [3] was > 0.05%. The “LC50 2-SM E” value in assay [4] was > 0.05%. In addition, the “LC50 TBW E” value in assay [5] is reported as > 0.1%. The “LC50 Diab.” value in assay [6] was > 25 ppm (soil). For the same compound, the “LC50 CL” value in assay [7] came to 0.025%.

On to `Cc1ccc(CC(O)(CCc2cccc(Oc3ccccc3)c2)C(C)C)cc1` (centres unmarked) [Compound 2], for which the “LC50 HF” value in assay [1] was > 100 µg. In addition, the “LC50 BBA” value in assay [2] was found to be 0.05%. For the same compound, the “LC50 2-SM A” value in assay [3] is given as > 0.05%. In assay [4], the “LC50 2-SM E” value is given as > 0.05%. In addition, the “LC50 TBW E” value in assay [5] is reported as > 0.1%. In assay [6], the “LC50 Diab.” value is reported as > 25 ppm (soil). In addition, the “LC50 CL” value in assay [7] was determined as 0.016%.

As to `CC(C)C(O)(CCc1cccc(Oc2ccccc2)c1)Cc1ccc(Cl)cc1` (centres unmarked) [Compound 1, 1-(4-chlorophenyl)-2-isopropyl-4-(3-phenoxyphenyl)-2-butanol], in assay [1], the “LC50 HF” value was > 100 µg. Further, in assay [2], the “LC50 BBA” value is 0.05%. For the same compound, the “LC50 2-SM A” value in assay [3] is > 0.05%. In assay [4], the “LC50 2-SM E” value is > 0.05%. Further, the “LC50 TBW E” value in assay [5] is listed as > 0.1%. In addition, the “LC50 Diab.” value in assay [6] is listed as > 25 ppm (soil). Moreover, the “LC50 CL” value in assay [7] came to 0.015%.
